Experimental data reported in patent publication EP1949899A1, “Metal salophen complexes use in prevention and treatment of cancer” (Freie Universität Berlin, priority 2007, dated 2008).
Where two headings read alike, the source gives them in different places.

Experiments:
LNCaP-FGC-cells = experiment: Time dependent test (crystal violet assay) on LNCaP-FGC-cells; format: cell-based
Procedure: The time dependent tests were performed according to Reile, H. et al.: "Computerized Determination of Growth Kinetic Curves and Doubling Times from Cells in Microculture", Analytical Biochemistry, 1990, 187 (2): 262-267; Bernhardt, G. et al.: "Standardized kinetic microassay to quantifiy differential chemosensitivity on the basis of proliferative activity", Journal of Research Clin. Oncol., 1992, 118: 35-43 and Gust, R. et al.: "Development of Cobalt(3,4-diarylsalen) Complexes as Tumor Therapeutics", Journal of Medicinal Chemistry, 2004, 47 (24): 5837-5846.
Determining the cell mass in the crystal violet assay the interpretation of the received values was the following: […]

[1] = system: supercoiled plasmid DNA (pSK Bluescript); experiment: DNA cleavage reactions with plasmid DNA on agarose gels; format: biochemical; conditions: for DNA cleaving effect: 1 h at 37 °C
Procedure: General procedure for DNA cleavage reactions with plasmid DNA on agarose gels
100 µl reaction mixture contained 1 µg of supercoiled plasmid DNA (pSK Bluescript) in a tris-HCI buffer at pH 7.0, 1 µl of iron complex solution at the desired concentration (10 mM to 10 µM in DMSO) and in some cases 1 µl of 100 µM dithiothreitol solution resp. 1 µl of 1 mM mercaptoethanol solution. After incubation at 37 °C for the indicated time, 1 µl of loading buffer (0.25 % bromophenol blue, 0,25 % xylene cyanol, 30 % glycerin in H2O) was added to 5 µl reaction mixture (containing 50 ng plasmid DNA) and subsequently loaded onto a 0.8 % agarose gel. One µl of 1 kb-DNA-ladder (NewEnglandBiolabs, #N3232L) was loaded for estimation of size and amount of loaded DNA sample. The electrophoresis was carried out for ~ 45 min at 100 V in TBE buffer at pH 8.3. Gels were stained with etidium bromide (1 µg/ml) and photographed under 254 nm UV light.

MDA-MB-231-cells = experiment: Concentration dependent cytotoxicity test (IC50) on MDA-MB-231 cells; format: cell-based
Procedure: (§1) Measurement of IC50-values was performed as described by Ott, I. et al., Journal of Medicinal Chemistry, 2005, 48 (2): 622-629. But unlike described in the literature, the experiments with MCF-7-cells were stopped after 96 hours and experiments with MDA-MB-231-cells were stopped after 72 hours.

MDA-MB-231 cells = experiment: Time dependent test (crystal violet assay) on MDA-MB-231 cells; format: cell-based
MCF-7 cells [2] = experiment: Time dependent test (crystal violet assay) on MCF-7 cells; format: cell-based
MCF-7-cells = experiment: Concentration dependent cytotoxicity test (IC50) on MCF-7 cells; format: cell-based
Procedure: as §1

MCF-7 cells [3] = conditions: Ghezzi, A. et al., 2004; cited from earlier work
HeLa cells = experiment: Time dependent test (crystal violet assay) on HeLa cells; format: cell-based
[4] = higher concentrations (1-10 µM)
[5] = low concentrations (0,1 µM), in the presence of a reducing agent
[6] = MDA-MB-231, stopped after 72 hours, read-out: IC50
[7] = MCF-7, stopped after 96 hours, read-out: IC50
[8] = Homo sapiens, MDA-MB-231, stopped after 72 hours, read-out: IC50
[9] = Homo sapiens, MCF7, MCF-7, stopped after 96 hours, read-out: IC50

## [Fe+2].[O-]c1ccccc1C=Nc1ccccc1N=Cc1ccccc1[O-] [Fe(II)salophen, [N,N'-Bis(salicylidene)phenylene-1,2-diamine]-iron(II)]
LNCaP-FGC-cells; 0.1 µM
  minimum T/Ccorr- resp. τ-value: 47.3%
LNCaP-FGC-cells; 0.5 µM
  minimum T/Ccorr- resp. τ-value: 8.9%
LNCaP-FGC-cells; 1 µM
  minimum T/Ccorr- resp. τ-value: -25.6%
[1]; [4]
  DNA cleaving effect: DNA double strand breakages
[1]; [5]
  DNA cleaving effect: DNA single strand breakages
MDA-MB-231-cells; [6]
  IC50: 0.1 µM
MDA-MB-231 cells; MDA-MB-231, 0.05 µM
  minimum T/Ccorr- resp. τ-value: 90.0%
MDA-MB-231 cells; MDA-MB-231, 0.1 µM
  minimum T/Ccorr- resp. τ-value: 41.9%
MDA-MB-231 cells; MDA-MB-231, 0.5 µM
  minimum T/Ccorr- resp. τ-value: -19.1%
MDA-MB-231 cells; MDA-MB-231, 1 µM
  minimum T/Ccorr- resp. τ-value: -29.7%
MCF-7 cells [2]; MCF-7, 0.05 µM
  minimum T/Ccorr- resp. τ-value: 96.5%
MCF-7 cells [2]; MCF-7, 0.1 µM
  minimum T/Ccorr- resp. τ-value: 96.7%
MCF-7 cells [2]; MCF-7, 0.5 µM
  minimum T/Ccorr- resp. τ-value: 35.7%
MCF-7 cells [2]; MCF-7, 1 µM
  minimum T/Ccorr- resp. τ-value: -35.9%
MCF-7-cells; [7]
  IC50: 0.4 µM

## N[C@@H](Cc1ccc(N(CCCl)CCCl)cc1)C(=O)O [Melphalan]
MDA-MB-231-cells; Homo sapiens, MDA-MB-231, 72 h
  IC50: 3.9 µM
MCF-7-cells; Homo sapiens, MCF7, 96 h
  IC50: 5.7 µM

## N.N.[Cl][Pt][Cl] [cisplatin, reference compound]
LNCaP-FGC-cells; 0.5 µM
  minimum T/Ccorr- resp. τ-value: 59.0%
LNCaP-FGC-cells; 1 µM
  minimum T/Ccorr- resp. τ-value: 32.7%
LNCaP-FGC-cells; 5 µM
  minimum T/Ccorr- resp. τ-value: 6.7%
MDA-MB-231-cells; [6]
  IC50: 4 µM
MDA-MB-231 cells; MDA-MB-231, 0.5 µM
  minimum T/Ccorr- resp. τ-value: 79.7%
MDA-MB-231 cells; MDA-MB-231, 1 µM
  minimum T/Ccorr- resp. τ-value: 69.0%
MCF-7 cells [3]
  enrichment in comparison with the outer medium: fivefold
MCF-7 cells [2]; MCF-7, 0.5 µM
  minimum T/Ccorr- resp. τ-value: 55.1%
MCF-7 cells [2]; MCF-7, 1 µM
  minimum T/Ccorr- resp. τ-value: 2.2%
HeLa cells; 0.5 µM
  minimum T/Ccorr- resp. τ-value: 55.9%
HeLa cells; 1 µM
  minimum T/Ccorr- resp. τ-value: 33.5%
MCF-7-cells; [7]
  IC50: 2 µM

## O=C1[O][Pt]2([NH][C@@H]3CCCC[C@H]3[NH]2)[O]C1=O [Oxaliplatin]
LNCaP-FGC-cells; 0.5 µM
  minimum T/Ccorr- resp. τ-value: 12.7%
LNCaP-FGC-cells; 1 µM
  minimum T/Ccorr- resp. τ-value: -0.6%
LNCaP-FGC-cells; 5 µM
  minimum T/Ccorr- resp. τ-value: -31.0%
MCF-7 cells [3]
  enrichment in comparison with the outer medium: sixfold

## [Cl][Fe]([Cl])[Cl] [FeCl3]
MDA-MB-231-cells; [6]
  IC50: > 100 µM
MCF-7-cells; [7]
  IC50: > 100 µM

## C#CCOC(=O)c1ccccc1OC(C)=O.[C-]#[O+].[C-]#[O+].[C-]#[O+].[C-]#[O+].[C-]#[O+].[C-]#[O+].[Co].[Co] [Co-Ass, Hexacarbonyl[2-propyn-1-ylacetylsalicylat]dicobalt]
MDA-MB-231-cells; [6]
  IC50: 1.9 µM
MCF-7-cells; [7]
  IC50: 1.4 µM

## [Cl-].[Fe+3].[O-]c1ccccc1C=Nc1ccccc1N=Cc1ccccc1[O-] [Fe(III)salophen chloride, [N,N'-Bis(salicylidene)phenylene-1,2-diamine]-iron(III)-chloride]
LNCaP-FGC-cells; 0.1 µM
  minimum T/Ccorr- resp. τ-value: 34.4%
LNCaP-FGC-cells; 0.5 µM
  minimum T/Ccorr- resp. τ-value: 3.6%
LNCaP-FGC-cells; 1 µM
  minimum T/Ccorr- resp. τ-value: -19.5%
[1]; [4]
  DNA cleaving effect: DNA double strand breakages
[1]; [5]
  DNA cleaving effect: DNA single strand breakages
MDA-MB-231-cells; [6]
  IC50: 0.01 µM
MDA-MB-231 cells; MDA-MB-231, 0.05 µM
  minimum T/Ccorr- resp. τ-value: 46.0%
MDA-MB-231 cells; MDA-MB-231, 0.1 µM
  minimum T/Ccorr- resp. τ-value: 66.2%
MDA-MB-231 cells; MDA-MB-231, 0.5 µM
  minimum T/Ccorr- resp. τ-value: -27.8%
MDA-MB-231 cells; MDA-MB-231, 1 µM
  minimum T/Ccorr- resp. τ-value: -40.8%
MCF-7 cells [2]; MCF-7, 0.05 µM
  minimum T/Ccorr- resp. τ-value: 92.6%
MCF-7 cells [2]; MCF-7, 0.1 µM
  minimum T/Ccorr- resp. τ-value: 80.4%
MCF-7 cells [2]; MCF-7, 0.5 µM
  effect on cell mass (interpretation of T/Ccorr resp. τ): cytocide effect (T/Ccorr or τ < 0 %)
  minimum T/Ccorr- resp. τ-value: -23.4%
MCF-7 cells [2]; MCF-7, 1 µM
  minimum T/Ccorr- resp. τ-value: -50.8%
HeLa cells; 0.1 µM
  minimum T/Ccorr- resp. τ-value: 36.2%
HeLa cells; 0.5 µM
  minimum T/Ccorr- resp. τ-value: 52.1%
HeLa cells; 1 µM
  minimum T/Ccorr- resp. τ-value: -26.0%
MCF-7-cells; [7]
  IC50: 0.3 µM

## O=c1[nH]cc(F)c(=O)[nH]1 [5-fluorouracil]
MDA-MB-231-cells; [8]
  IC50: 9.6 µM
MCF-7-cells; [9]
  IC50: 4.8 µM

## CC(=O)[O-].CC(=O)[O-].[Fe+2] [Fe(OAc)2]
MDA-MB-231-cells; [6]
  IC50: > 50 µM
MCF-7-cells; [7]
  IC50: > 50 µM

## Oc1ccccc1C=Nc1ccccc1N=Cc1ccccc1O [ligand, N,N'-bis(salicylidene)-phenylene-1,2-diamine, reference compound]
[1]; 1 h incubation at 37 °C, with or without additional reducing agents (DTT, 2-ME)
  DNA decomposition: not able to decompose DNA

## N.N.O=C([O-])C1(C(=O)[O-])CCC1.[Pt+2] [Carboplatin]
LNCaP-FGC-cells; 0.5 µM
  minimum T/Ccorr- resp. τ-value: 69.5%
LNCaP-FGC-cells; 1 µM
  minimum T/Ccorr- resp. τ-value: 55.5%
LNCaP-FGC-cells; 5 µM
  minimum T/Ccorr- resp. τ-value: 19.6%
MCF-7 cells [3]
  enrichment in comparison with the outer medium: 1,6

## Nc1ccccc1N [o-phenylenediamine]
MDA-MB-231-cells; [8]
  IC50: 23.5 µM
MCF-7-cells; [9]
  IC50: 5.1 µM
